Reference: ChEMBL document CHEMBL3124815, “Discovery of a selective kinase inhibitor (TAK-632) targeting pan-RAF inhibition: design, synthesis, and biological evaluation of C-7-substituted 1,3-benzothiazole derivatives” (J Med Chem, 2013)
In brackets after ≈: the same amount, converted by molar mass.

Key:
[1] = Solubility of the compound in form of solid dispersion in phosphate buffer at pH 6.8; type: physicochemical
[2] = tested on: Mus musculus; assay: AUC (0 to 8 hrs) in mouse at 10 mg/kg, po; type: ADME, organism-based, Blood; parameters: time < 8 hr, dose 10 mg/kg, route oral; details: in vivo
[3] = biological target: RAF proto-oncogene serine/threonine-protein kinase (Homo sapiens, UniProt P04049); assay: Competitive inhibition of CRAF (unknown origin) in presence of 0.5 uM ATP by ELISA
Chain of RAF proto-oncogene serine/threonine-protein kinase (P04049 whole entry): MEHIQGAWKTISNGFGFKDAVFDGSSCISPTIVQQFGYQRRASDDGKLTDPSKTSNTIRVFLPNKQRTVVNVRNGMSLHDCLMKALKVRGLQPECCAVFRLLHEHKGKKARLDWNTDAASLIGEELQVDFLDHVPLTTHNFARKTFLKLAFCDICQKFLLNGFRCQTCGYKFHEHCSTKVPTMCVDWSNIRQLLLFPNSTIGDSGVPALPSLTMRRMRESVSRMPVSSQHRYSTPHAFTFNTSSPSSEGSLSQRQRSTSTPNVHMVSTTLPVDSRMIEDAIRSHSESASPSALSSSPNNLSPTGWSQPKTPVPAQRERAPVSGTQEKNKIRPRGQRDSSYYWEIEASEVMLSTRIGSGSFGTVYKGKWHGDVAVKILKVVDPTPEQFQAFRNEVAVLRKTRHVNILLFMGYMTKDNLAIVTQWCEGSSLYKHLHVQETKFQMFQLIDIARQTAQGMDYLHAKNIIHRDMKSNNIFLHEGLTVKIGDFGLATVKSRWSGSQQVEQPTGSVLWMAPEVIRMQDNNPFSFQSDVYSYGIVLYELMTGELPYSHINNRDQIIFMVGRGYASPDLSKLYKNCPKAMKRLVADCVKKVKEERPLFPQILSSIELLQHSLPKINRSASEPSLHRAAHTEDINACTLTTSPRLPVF

[4] = tested on: Rattus norvegicus; assay: Toxicity in F344 nude rat xenografted with human HMVII cells expressing NRAS Q61K/BRAF G469V mutant assessed as body weight change at 9.7 mg/kg, po bid for 14 days; type: organism-based; parameters: dose 9.7 mg/kg, route oral; details: in vivo, 336 h
[5] = Inhibition of PKA (unknown origin) expressed in Escherichia coli after 10 mins; parameters: species or system Homo sapiens
[6] = AUC (0 to 24 hrs) in dog at 10 mg/kg, po; type: ADME, organism-based, Canis lupus familiaris; parameters: time < 24 hr, dose 10 mg/kg, route oral; details: plasma
[7] = biological target: Proto-oncogene tyrosine-protein kinase Src (Homo sapiens, UniProt P12931); assay: Inhibition of Src receptor (unknown origin) using biotinylated poly-Glu-Tyr (4:1) as substrate preincubated for 5 mins measured after 12 hrs
[8] = biological target: Mast/stem cell growth factor receptor Kit (Homo sapiens, UniProt P10721); assay: Inhibition of c-Kit receptor (unknown origin) using biotinylated poly-Glu-Tyr (4:1) as substrate preincubated for 5 mins measured after 12 hrs
[9] = biological target: Receptor tyrosine-protein kinase erbB-2 (Homo sapiens, UniProt P04626); assay: Inhibition of N-terminal peptide (DYKDDDD)-tagged HER2 (unknown origin) expressed in baculovirus system using biotinylated poly-Glu-Tyr (4:1) as substrate preincubated for 5 mins measured after 12 hrs by scintillation counting
[10] = biological target: T1, Serine/threonine-protein kinase B-raf (Homo sapiens, UniProt P15056); assay: Binding affinity to BRAF (unknown origin) assessed as equilibrium dissociation constant by surface plasmon resonance analysis
T1 sequence (P15056 whole entry): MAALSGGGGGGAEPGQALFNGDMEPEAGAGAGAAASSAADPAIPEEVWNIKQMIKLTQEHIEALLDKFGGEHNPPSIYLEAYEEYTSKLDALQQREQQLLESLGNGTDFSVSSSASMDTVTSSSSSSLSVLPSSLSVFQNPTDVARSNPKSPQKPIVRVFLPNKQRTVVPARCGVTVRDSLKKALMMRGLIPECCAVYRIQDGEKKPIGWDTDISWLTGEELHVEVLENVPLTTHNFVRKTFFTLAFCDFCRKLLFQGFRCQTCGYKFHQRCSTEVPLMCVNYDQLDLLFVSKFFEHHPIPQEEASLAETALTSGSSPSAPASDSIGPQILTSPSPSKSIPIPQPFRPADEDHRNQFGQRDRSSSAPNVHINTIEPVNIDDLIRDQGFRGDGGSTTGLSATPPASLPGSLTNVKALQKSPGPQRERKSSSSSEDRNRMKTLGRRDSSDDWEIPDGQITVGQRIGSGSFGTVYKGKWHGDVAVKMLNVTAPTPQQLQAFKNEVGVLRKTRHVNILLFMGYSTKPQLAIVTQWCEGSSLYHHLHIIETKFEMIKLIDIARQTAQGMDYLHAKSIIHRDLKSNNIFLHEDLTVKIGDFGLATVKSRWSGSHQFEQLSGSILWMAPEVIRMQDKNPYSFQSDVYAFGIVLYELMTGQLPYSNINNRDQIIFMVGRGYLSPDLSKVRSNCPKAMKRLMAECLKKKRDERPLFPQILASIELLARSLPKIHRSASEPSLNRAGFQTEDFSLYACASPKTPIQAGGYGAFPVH

[11] = biological target: T2, Serine/threonine-protein kinase B-raf (Homo sapiens, UniProt P15056, V600E); assay: Inhibition of BRAF V600E mutant (unknown origin) compound preincubated for 1 hr in presence of 1000 uM ATP
T2 sequence (P15056 2-766 V600E limits assumed): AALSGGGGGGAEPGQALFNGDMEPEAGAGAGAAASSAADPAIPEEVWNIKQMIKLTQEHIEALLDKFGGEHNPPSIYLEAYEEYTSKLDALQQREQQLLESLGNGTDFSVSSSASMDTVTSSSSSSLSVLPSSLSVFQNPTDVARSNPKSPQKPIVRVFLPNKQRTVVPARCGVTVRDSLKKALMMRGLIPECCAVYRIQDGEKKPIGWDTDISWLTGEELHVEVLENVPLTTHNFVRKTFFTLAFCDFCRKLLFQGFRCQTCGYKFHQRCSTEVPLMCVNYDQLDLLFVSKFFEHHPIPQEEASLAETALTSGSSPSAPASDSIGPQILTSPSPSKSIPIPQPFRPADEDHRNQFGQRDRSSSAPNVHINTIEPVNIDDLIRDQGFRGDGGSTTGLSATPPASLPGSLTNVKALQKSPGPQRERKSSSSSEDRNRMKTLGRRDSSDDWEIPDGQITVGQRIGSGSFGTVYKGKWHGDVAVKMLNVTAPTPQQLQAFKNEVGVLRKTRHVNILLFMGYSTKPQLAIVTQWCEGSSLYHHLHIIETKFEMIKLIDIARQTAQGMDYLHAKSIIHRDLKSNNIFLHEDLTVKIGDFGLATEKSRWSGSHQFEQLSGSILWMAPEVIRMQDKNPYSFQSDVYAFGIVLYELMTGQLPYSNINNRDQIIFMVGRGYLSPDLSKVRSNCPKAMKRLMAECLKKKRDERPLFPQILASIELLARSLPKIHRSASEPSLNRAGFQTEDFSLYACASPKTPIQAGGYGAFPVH

[12] = biological target: T1, Serine/threonine-protein kinase B-raf
Description: Binding affinity to BRAF (unknown origin) assessed as dissociation half life by surface plasmon resonance analysis

[13] = species: Homo sapiens; assay: Selectivity factor, ratio of IC50 for VEGFR2 (unknown origin) to IC50 for N-terminal FLAG-tagged recombinant BRAF-V600E (unknown origin) expressed in baculovirus system
[14] = Solubility of the compound in phosphate buffer at pH 6.8; type: physicochemical
[15] = biological target: Epidermal growth factor receptor (Homo sapiens, UniProt P00533); assay: Inhibition of N-terminal peptide (DYKDDDD)-tagged EGFR (unknown origin) expressed in baculovirus system using biotinylated poly-Glu-Tyr (4:1) as substrate preincubated for 5 mins measured after 12 hrs by scintillation counting
[16] = AUC (0 to 24 hrs) in rat at 25 mg/kg, po; type: ADME, organism-based; parameters: time < 24 hr, dose 25 mg/kg, route oral; details: plasma
[17] = biological target: Glycogen synthase kinase-3 beta (Homo sapiens, UniProt P49841); assay: Inhibition of C-terminal FLAG-tagged GSK3beta (unknown origin) expressed in baculovirus system after 30 mins
[18] = biological target: Mitogen-activated protein kinase 14 (Homo sapiens, UniProt Q16539); assay: Inhibition of C-terminal FLAG-tagged p38 alpha (unknown origin) expressed in baculovirus system using MBP as substrate after 60 mins
[19] = biological target: T2, Serine/threonine-protein kinase B-raf; assay: Inhibition of BRAF V600E mutant (unknown origin) in presence of 1000 uM ATP by ELISA
[20] = biological target: Mitogen-activated protein kinase 3 (Homo sapiens, UniProt P27361); assay: Inhibition of C-terminal FLAG-tagged ERK1 expressed in baculovirus system (unknown origin) using MBP as substrate after 60 mins
Chain of Mitogen-activated protein kinase 3 (P27361 whole entry): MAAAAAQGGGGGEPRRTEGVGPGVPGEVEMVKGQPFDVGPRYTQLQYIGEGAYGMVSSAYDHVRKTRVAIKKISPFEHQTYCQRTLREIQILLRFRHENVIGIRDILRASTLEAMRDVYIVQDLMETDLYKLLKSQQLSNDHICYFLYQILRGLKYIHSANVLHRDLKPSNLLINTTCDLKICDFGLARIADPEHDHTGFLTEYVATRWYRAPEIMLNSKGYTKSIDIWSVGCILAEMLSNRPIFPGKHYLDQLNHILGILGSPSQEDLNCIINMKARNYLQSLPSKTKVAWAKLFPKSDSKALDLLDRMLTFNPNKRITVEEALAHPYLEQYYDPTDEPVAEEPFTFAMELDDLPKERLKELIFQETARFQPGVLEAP

[21] = Volume of distribution at steady state in rat at 1 mg/kg, iv; type: ADME, organism-based; parameters: dose 1 mg/kg, route intravenous; details: in vivo, read-out: Vdss
[22] = biological target: Platelet-derived growth factor receptor beta (Homo sapiens, UniProt P09619); assay: Inhibition of PDGFR beta (unknown origin) using biotinylated poly-Glu-Tyr (4:1) as substrate preincubated for 5 mins measured after 12 hrs
[23] = Oral bioavailability in dog at 10 mg/kg; type: ADME, organism-based, Canis lupus familiaris; details: in vivo
[24] = tested on: Rattus norvegicus; assay: Toxicity in F344 nude rat xenografted with human HMVII cells expressing NRAS Q61K/BRAF G469V mutant assessed as body weight change at 24.1 mg/kg, po bid for 14 days; type: organism-based; parameters: dose 24.1 mg/kg, route oral; details: in vivo, 336 h
[25] = Volume of distribution at steady state in dog at 1 mg/kg, iv; type: ADME, organism-based, Canis lupus familiaris; parameters: dose 1 mg/kg, route intravenous; details: in vivo, read-out: Vdss
[26] = Antiproliferative activity against human HMVII cells assessed as growth inhibition after 72 hrs by chemi-luminescence cell viability assay; type: functional; details: HMV-2, 72 h
[27] = biological target: T2, Serine/threonine-protein kinase B-raf; assay: Inhibition of BRAF V600E mutant (unknown origin) compound preincubated for 1 hr in presence of 5 uM ATP
[28] = Mean residence time in dog at 10 mg/kg, po; type: ADME, organism-based, Canis lupus familiaris; parameters: dose 10 mg/kg, route oral; details: in vivo
[29] = biological target: Aurora kinase B (Homo sapiens, UniProt Q96GD4); assay: Inhibition of N-terminal His-6-tagged Aurora kinase B (unknown origin) expressed in baculovirus system after 60 mins
Chain of Aurora kinase B (Q96GD4 whole entry): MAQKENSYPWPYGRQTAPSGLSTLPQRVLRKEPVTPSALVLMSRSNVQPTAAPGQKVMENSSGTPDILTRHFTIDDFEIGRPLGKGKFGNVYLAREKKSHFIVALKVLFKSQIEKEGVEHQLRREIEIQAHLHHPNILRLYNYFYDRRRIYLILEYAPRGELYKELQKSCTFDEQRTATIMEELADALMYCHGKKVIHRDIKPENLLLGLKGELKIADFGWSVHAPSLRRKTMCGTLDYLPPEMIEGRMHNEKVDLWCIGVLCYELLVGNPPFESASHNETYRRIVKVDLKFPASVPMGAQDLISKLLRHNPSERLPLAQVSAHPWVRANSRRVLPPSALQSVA

[30] = Mean residence time in rat at 25 mg/kg, po; type: ADME, organism-based; parameters: dose 25 mg/kg, route oral; details: in vivo
[31] = biological target: Mitogen-activated protein kinase kinase kinase 1 (Homo sapiens, UniProt Q13233); assay: Inhibition of C-terminal FLAG-tagged MEKK1 (unknown origin) expressed in baculovirus system using MBP as substrate after 60 mins
Chain of Mitogen-activated protein kinase kinase kinase 1 (Q13233 whole entry): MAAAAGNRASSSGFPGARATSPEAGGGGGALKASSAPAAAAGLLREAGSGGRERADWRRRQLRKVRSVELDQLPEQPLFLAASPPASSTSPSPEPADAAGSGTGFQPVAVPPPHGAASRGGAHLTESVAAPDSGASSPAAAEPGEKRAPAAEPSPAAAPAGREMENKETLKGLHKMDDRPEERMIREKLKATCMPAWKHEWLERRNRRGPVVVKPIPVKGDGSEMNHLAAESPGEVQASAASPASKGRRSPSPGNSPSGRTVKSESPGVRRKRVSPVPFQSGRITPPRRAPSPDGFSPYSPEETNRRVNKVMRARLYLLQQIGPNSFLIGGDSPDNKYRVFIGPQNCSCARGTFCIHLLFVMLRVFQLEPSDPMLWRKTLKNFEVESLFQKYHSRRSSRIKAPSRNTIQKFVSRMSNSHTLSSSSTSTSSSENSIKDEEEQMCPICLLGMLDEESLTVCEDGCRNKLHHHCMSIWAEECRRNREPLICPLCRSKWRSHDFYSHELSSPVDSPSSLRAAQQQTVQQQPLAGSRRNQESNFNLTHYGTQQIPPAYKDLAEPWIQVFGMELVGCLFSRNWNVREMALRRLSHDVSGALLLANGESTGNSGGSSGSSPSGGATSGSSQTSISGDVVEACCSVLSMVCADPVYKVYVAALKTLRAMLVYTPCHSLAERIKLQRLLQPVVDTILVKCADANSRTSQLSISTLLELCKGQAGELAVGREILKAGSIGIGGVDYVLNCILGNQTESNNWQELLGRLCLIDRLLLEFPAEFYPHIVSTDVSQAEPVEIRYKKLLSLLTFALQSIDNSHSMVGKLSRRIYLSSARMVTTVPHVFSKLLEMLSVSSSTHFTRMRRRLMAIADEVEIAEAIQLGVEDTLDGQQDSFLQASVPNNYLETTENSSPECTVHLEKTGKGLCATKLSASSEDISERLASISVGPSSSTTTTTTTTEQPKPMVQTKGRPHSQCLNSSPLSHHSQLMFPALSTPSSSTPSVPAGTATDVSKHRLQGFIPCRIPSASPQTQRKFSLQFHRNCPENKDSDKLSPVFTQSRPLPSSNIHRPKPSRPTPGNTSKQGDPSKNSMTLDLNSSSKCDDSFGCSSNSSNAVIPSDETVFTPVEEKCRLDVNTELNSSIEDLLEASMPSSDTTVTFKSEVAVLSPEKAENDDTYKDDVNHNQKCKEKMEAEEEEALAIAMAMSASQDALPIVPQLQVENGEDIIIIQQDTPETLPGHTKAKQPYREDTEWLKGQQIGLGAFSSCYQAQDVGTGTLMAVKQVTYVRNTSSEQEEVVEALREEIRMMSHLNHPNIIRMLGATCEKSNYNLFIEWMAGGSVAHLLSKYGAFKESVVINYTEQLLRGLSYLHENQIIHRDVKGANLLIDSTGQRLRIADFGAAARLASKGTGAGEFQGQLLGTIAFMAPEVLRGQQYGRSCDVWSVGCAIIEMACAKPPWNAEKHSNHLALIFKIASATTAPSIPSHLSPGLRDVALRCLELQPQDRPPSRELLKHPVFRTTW

[32] = Antitumor activity against human HMVII cells expressing NRAS Q61K/BRAF G469V mutant xenografted in F344 nude rat assessed as reduction in tumor size at 24.1 mg/kg, po bid for 14 days relative to control; type: functional, HMV-2
[33] = tested on: Rattus norvegicus; assay: Toxicity in F344 nude rat xenografted with human A375 cells expressing BRAF V600E mutant assessed as body weight change at 9.7 mg/kg, po bid for 14 days relative to control; type: organism-based, A-375; parameters: dose 9.7 mg/kg, route oral; details: in vivo, 336 h
[34] = Inhibition of NRASQ61k/BRAFG469V-mutant in human HMVII cells assessed as phosphorylation of MEK after 2 hrs by Western blotting analysis; type: cell-based
[35] = Total clearance in dog at 1 mg/kg, iv; type: ADME, organism-based, Canis lupus familiaris; parameters: dose 1 mg/kg, route intravenous; details: in vivo
[36] = Oral bioavailability in rat at 25 mg/kg; type: ADME, organism-based; details: in vivo
[37] = biological target: Casein kinase I isoform delta (Homo sapiens, UniProt P48730); assay: Inhibition of CK1delta (unknown origin) using CK1tide as substrate after 20 mins
[38] = AUC (0 to 24 hrs) in dog at 1 mg/kg, iv; type: ADME, organism-based, Canis lupus familiaris; parameters: time < 24 hr, dose 1 mg/kg, route intravenous; details: plasma
[39] = biological target: Dual specificity mitogen-activated protein kinase kinase 1 (Homo sapiens, UniProt Q02750); assay: Inhibition of N-terminal GST-tagged MEK1 (unknown origin) expressed in 293 cells using GST-ERK1(K71A) as substrate after 20 mins
Chain of Dual specificity mitogen-activated protein kinase kinase 1 (Q02750 whole entry): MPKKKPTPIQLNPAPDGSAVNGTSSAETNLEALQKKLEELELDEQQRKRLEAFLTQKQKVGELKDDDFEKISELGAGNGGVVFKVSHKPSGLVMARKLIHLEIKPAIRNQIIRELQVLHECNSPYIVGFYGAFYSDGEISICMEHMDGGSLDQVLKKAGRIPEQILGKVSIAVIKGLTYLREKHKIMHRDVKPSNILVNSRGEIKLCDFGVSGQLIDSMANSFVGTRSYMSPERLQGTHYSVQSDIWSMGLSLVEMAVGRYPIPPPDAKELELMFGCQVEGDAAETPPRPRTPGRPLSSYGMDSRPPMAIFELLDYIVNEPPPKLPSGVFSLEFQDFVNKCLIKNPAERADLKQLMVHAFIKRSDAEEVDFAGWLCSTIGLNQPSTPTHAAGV

N#Cc1c(Oc2ccc(F)c(NC(=O)Cc3cccc(C(F)(F)F)c3)c2)ccc2nc(NC(=O)C3CC3)sc12
solubility [1]: 740 µg/mL (≈ 1330 µM) | AUC [2]: 2480 ng·h/mL | IC50 [3]: 8.1 nM | inhibition ([3]; TDE = time-dependent effect): tde | Activity [4]: 9.8 g | IC50 [5]: > 10000 nM | AUC(0-t) at 24 h [6]: 15500 ng·h/mL | IC50 [7]: > 10000 nM | IC50 [8]: > 10000 nM | IC50 [9]: > 10000 nM | Kd [10]: 1.6 nM | IC50 [11]: 3.3 nM | T1/2 [12]: 10 h | Ratio IC50 [13]: 67 | solubility [14]: < 0.02 µg/mL | IC50 [15]: > 10000 nM | AUC(0-t) at 24 h [16]: 32500 ng·h/mL | IC50 [17]: 500 nM | IC50 [18]: 600 nM | IC50 [19]: 58 nM | IC50 [20]: > 10000 nM | Vd [21]: 1.87 L/kg | IC50 [22]: 120 nM | bioavailability [23]: 108% | Activity [24]: 28.4 g | Vd [25]: 1.57 L/kg | GI50 [26]: 200 nM | IC50 [27]: 2.2 nM | MRT [28]: 7.12 h | IC50 [29]: 66 nM | MRT [30]: 6.27 h | IC50 [31]: > 10000 nM | T/C [32]: 0% | Activity [33]: 14 g | IC50 [34]: 49 nM | clearance [35]: 11.7 mL/min/kg | bioavailability [36]: 51.7% | IC50 [37]: > 10000 nM | AUC(0-t) at 24 h [38]: 1430 ng·h/mL | IC50 [39]: 3700 nM
